Test results: ChEMBL document CHEMBL1141437, “Lipoperoxidation and cyclooxygenase enzyme inhibitory piperidine alkaloids from Cassia spectabilis green fruits” (J Nat Prod, 2007)

Columns and labels:
[1] = DPPH radical scavenging activity assessed as absorption change at 60 ppm by spectrophotometry; type: functional
[2] = Inhibition of AAPH-induced lipid peroxidation; type: functional; details: dose or concentration not given here
[3] = target: T1, Prostaglandin G/H synthase 1 (Ovis aries) (UniProt P05979); assay: Inhibition of ram seminal vesicle COX1 at 100 ppm; type: tissue-based
T1 sequence (whole entry): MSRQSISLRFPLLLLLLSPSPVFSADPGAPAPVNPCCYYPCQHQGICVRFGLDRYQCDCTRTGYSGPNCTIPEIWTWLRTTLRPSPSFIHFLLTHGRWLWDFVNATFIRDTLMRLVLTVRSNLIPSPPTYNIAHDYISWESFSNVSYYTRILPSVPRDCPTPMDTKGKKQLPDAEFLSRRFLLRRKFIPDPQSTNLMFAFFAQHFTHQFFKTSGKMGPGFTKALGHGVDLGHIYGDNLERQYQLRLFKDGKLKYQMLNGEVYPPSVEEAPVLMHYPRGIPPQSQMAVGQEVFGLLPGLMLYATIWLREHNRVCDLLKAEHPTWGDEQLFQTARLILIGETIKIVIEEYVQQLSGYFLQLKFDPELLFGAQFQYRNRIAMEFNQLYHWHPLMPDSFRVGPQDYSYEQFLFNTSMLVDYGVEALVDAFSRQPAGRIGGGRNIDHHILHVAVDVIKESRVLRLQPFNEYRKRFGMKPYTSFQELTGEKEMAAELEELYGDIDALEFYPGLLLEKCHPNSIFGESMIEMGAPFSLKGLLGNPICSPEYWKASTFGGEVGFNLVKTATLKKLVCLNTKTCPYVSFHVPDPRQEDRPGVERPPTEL

[4] = Inhibition of lipid peroxidation at 100 ppm after 21 mins; type: functional

inhibition [3] [%] | SMILES | deltaA [1] [%] | inhibition [2] [%] | inhibition [4] [%]
– | C[C@@H]1O[C@@H](OC[C@H]2O[C@@H](Oc3c(-c4ccc(O)c(O)c4)oc4cc(O)cc(O)c4c3=O)[C@H](O)[C@@H](O)[C@@H]2O)[C@H](O)[C@H](O)[C@H]1O | 92 | – | –
58 | CC(=O)CCCCCCCCCCCC[C@H]1CC[C@@H](OC(C)=O)[C@@H](C)N1 | < 10 | 50 | 75
40 | CC(=O)CCCCCCCCCCCC[C@H]1CC[C@@H](O)[C@@H](C)N1 | < 10 | 50 | 75
33 | COc1cc(/C=C/C(=O)O[C@@H]2CC[C@H](CCCCCCCCCCC(C)=O)N[C@@H]2C)ccc1O | 40 | 50 | –
